From ChEMBL document CHEMBL5523751, “Discovery of Novel Diaryl-Substituted Fused Heterocycles Targeting Katanin and Tubulin with Potent Antitumor and Antimultidrug Resistance Efficacy” (J Med Chem, 2024)
The source made the active and inactive calls. No cut-off for these calls is given here.

What was measured:
[1] = target: Katanin p60 ATPase-containing subunit A1 (Homo sapiens, UniProt O75449); experiment: Binding affinity to C-terminal human Katanin p60 (111 to 491 residues) expressed in Escherichia coli Rosetta (DE3) assessed as dissociation constant by SPR analysis
Katanin p60 ATPase-containing subunit A1, sequence (O75449 whole entry, the tested form may be a part): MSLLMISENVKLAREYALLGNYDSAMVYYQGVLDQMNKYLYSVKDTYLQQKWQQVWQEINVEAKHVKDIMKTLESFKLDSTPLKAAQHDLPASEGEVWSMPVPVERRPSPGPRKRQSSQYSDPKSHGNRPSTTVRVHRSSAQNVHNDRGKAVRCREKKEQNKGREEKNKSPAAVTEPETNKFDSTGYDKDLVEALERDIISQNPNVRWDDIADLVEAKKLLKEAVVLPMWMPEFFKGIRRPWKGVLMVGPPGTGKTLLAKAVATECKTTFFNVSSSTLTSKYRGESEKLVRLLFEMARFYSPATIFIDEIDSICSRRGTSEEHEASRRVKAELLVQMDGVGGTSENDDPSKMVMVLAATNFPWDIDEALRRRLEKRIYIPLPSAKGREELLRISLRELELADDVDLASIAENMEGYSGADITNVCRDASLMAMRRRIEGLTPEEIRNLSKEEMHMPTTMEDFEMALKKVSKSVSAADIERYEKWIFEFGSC

MCF7 [2] = experiment: Antiproliferative activity against katanin knockdown human MCF7 cells assessed as inhibition of cell growth at 0.2 to 25 nM measured after 48 hrs by MTT assay; assay type: functional, cell-based; conditions: dose 0.2-25 nM
[3] = (§1) Inhibition of porcine brain tubulin polymerization; design: species or system Sus scrofa
Sus scrofa = species: Sus scrofa; experiment: as §1; conditions: dose 0.4-12 µM
Tubulin (Homo sapiens) = Tubulin (Homo sapiens) (UniProt P68371+Q9H4B7+P0DPH7+P68366+Q13509+Q71U36+P04350+Q3ZCM7+P07437+P68363+Q9BQE3+Q6PEY2+Q13885+Q9BVA1+Q9BUF5); experiment: Inhibition of microtubule assembly in human MCF7 cells assessed as appearance of disorganized fibrous microtubule structure at 1 to 10 nM incubated for 24 hrs by immunofluorescence assay; assay type: cell-based; conditions: dose 1-10 nM
MCF7 [4] = experiment: Induction of cell cycle arrest in human MCF7 cells assessed as accumulation of cells at G2/M phase at 10 nM measured after 24 hrs by propidium iodide staining based flow cytometry analysis (reference value: 26%); assay type: functional
MCF7 [5] = experiment: Upregulation of cyclin-B1 expression level in human MCF7 cells at 1 to 10 nM by Western blot analysis; assay type: functional, cell-based; conditions: dose 1-10 nM
MCF7 [6] = experiment: Upregulation of histone H3 phosphorylation level in human MCF7 cells at 1 to 10 nM by Western blot analysis; assay type: functional, cell-based; conditions: dose 1-10 nM
MCF7 [7] = experiment: Induction of apoptosis in human MCF7 cells assessed as viable cells at 20 nM measured after 48 hrs by annexin-FITC and propidium iodide staining based flow cytometry analysis (reference value: 94.69%); assay type: functional; conditions: read-out: Activity
MCF7 [8] = experiment: Induction of apoptosis in human MCF7 cells assessed as early apoptotic cells at 20 nM measured after 48 hrs by annexin-FITC and propidium iodide staining based flow cytometry analysis (reference value: 1.20%); assay type: functional
MCF7 [9] = experiment: Induction of apoptosis in human MCF7 cells assessed as late apoptotic cells at 20 nM measured after 48 hrs by annexin-FITC and propidium iodide staining based flow cytometry analysis (reference value: 3.93%); assay type: functional
MCF7 [10] = experiment: Induction of apoptosis in human MCF7 cells assessed as necrotic cells at 10 nM measured after 48 hrs by annexin-FITC and propidium iodide staining based flow cytometry analysis (reference value: 0.18%); assay type: functional
MCF7 [11] = experiment: Induction of apoptosis in human MCF7 cells assessed as necrotic cells at 40 nM measured after 48 hrs by annexin-FITC and propidium iodide staining based flow cytometry analysis (reference value: 0.18%); assay type: functional
MCF7 [12] = experiment: Induction of apoptosis in human MCF7 cells measured after 48 hrs by annexin-FITC and propidium iodide staining based flow cytometry analysis; assay type: functional, cell-based; conditions: dose 10-40 nM
MCF7 [13] = experiment: Induction of apoptosis in human MCF7 cells assessed as upregulation of p53 protein level by Western blot analysis; assay type: functional, cell-based; conditions: dose 10-40 nM
MCF7 [14] = experiment: Inhibition of colony formation in human MCF7 cells at 5 to 10 nM incubated for 48 hrs; assay type: functional, cell-based; conditions: dose 5-10 nM
HUVEC = experiment: Anti-angiogenesis activity in human HUVEC cells assessed as disruption of capillary tube formation at 30 nM incubated for 6 hrs by inverted microscopic analysis; assay type: functional, cell-based
MDA-MB-468 = experiment: Antiproliferative activity against human MDA-MB-468 cells assessed as inhibition of cell growth measured after 48 hrs by MTT assay; assay type: functional, cell-based; conditions: MDA-MB-468, 48 h
MDA-MB-231 = experiment: Antiproliferative activity against human MDA-MB-231 cells assessed as inhibition of cell growth measured after 48 hrs by MTT assay; assay type: functional, cell-based; conditions: MDA-MB-231, 48 h
HT-29 = experiment: Antiproliferative activity against human HT-29 cells assessed as inhibition of cell growth measured after 48 hrs by MTT assay; assay type: functional, cell-based; conditions: HT-29, 48 h
DU-145 = experiment: Antiproliferative activity against human DU-145 assessed as inhibition of cell growth measured after 48 hrs by MTT assay; assay type: functional, cell-based; conditions: DU-145, 48 h
A549 = experiment: Antiproliferative activity against human A549 assessed as inhibition of cell growth measured after 48 hrs by MTT assay; assay type: functional, cell-based; conditions: A549, 48 h
A549/TR = experiment: Antiproliferative activity against paclitaxel resistant human A549/Taxol cells assessed as inhibition of cell growth measured after 48 hrs by MTT assay; assay type: functional, cell-based
[15] = Resistance index, ratio of IC50 for antiproliferative activity against human A549/Taxol cells to IC50 for antiproliferative activity against human A549 cells; assay type: functional
[16] = Resistance index, ratio of IC50 for antiproliferative activity against human CDDP-resistant A549 cell to IC50 for antiproliferative activity against human A549 cells; assay type: functional
[17] = Toxicity in ICR mouse assessed as lethal dose administered as IP dose measured upto 14 days; conditions: in vivo, time < 14 day
[18] = Acute toxicity in ICR mouse assessed as animal death at 100 mg/kg, ip measured after 3 to 14 days; assay type: organism-based; conditions: in vivo, time 3-14 day
[19] = Acute toxicity in ICR mouse assessed as animal death at 150 mg/kg, ip measured after 3 to 14 days; assay type: organism-based; conditions: in vivo, time 3-14 day
[20] = Acute toxicity in ICR mouse assessed as survival rate at 50 mg/kg, ip measured after 14 days relative to control; assay type: organism-based; conditions: in vivo, time 14 day
[21] = Acute toxicity in ICR mouse assessed as survival rate at 200 mg/kg, ip measured after 14 days relative to control; assay type: organism-based; conditions: in vivo, time 14 day
[22] = Toxicity in Balb/C nude mouse assessed as effect on body weight loss at 15 mg/kg, ip measured upto 2 weeks; assay type: organism-based; conditions: in vivo, 336 h
[23] = Toxicity in Balb/C nude mouse assessed as abnormalities in liver at 7.5 to 15 mg/kg, ip measured after 14 days by H and E staining based analysis; assay type: organism-based; conditions: in vivo, 336 h, dose 7.5-15 mg/kg, time 14 day
[24] = Toxicity in Balb/C nude mouse assessed as abnormalities in lung at 7.5 to 15 mg/kg, ip measured after 14 days by H and E staining based analysis; assay type: organism-based; conditions: in vivo, 336 h, dose 7.5-15 mg/kg, time 14 day
[25] = Toxicity in Balb/C nude mouse xenografted with A549/Taxol assessed as effect on body weight at 15 mg/kg, ip measured after 14 days by H and E staining based analysis; assay type: organism-based, A549/TR; conditions: in vivo, 336 h, time 14 day
[26] = Toxicity in Balb/C nude mouse xenografted with A549/Taxol assessed as effect on kidney at 15 mg/kg, ip measured after 14 days by H and E staining based analysis; assay type: organism-based, A549/TR; conditions: in vivo, 336 h, time 14 day
[27] = Toxicity in Balb/C nude mouse xenografted with A549/Taxol assessed as effect on white blood cells count at 15 mg/kg, ip measured after 14 days by biochemical assay; assay type: organism-based, A549/TR; conditions: in vivo, 336 h, time 14 day
[28] = Tmax in mouse at 3 mg/kg, iv measured upto 24 hrs by LC-MS/MS analysis; assay type: ADME, organism-based; conditions: in vivo
[29] = AUC (0 to infinity) in mouse at 3 mg/kg, iv measured upto 24 hrs by LC-MS/MS analysis; assay type: ADME, organism-based; conditions: in vivo
[30] = AUC (0 to infinity) in mouse at 15 mg/kg, po measured upto 24 hrs by LC-MS/MS analysis; assay type: ADME, organism-based; conditions: in vivo

In the case of `COc1cc(-n2cnc3ccc(-c4ccc(C)c(N)c4)nc32)cc(OC)c1OC`, the Kd [1] is reported as over 50000 nM, the Activity (MCF7 [2]) is reported as “inactive” and the IC50 [3] is reported as 2000 nM. For the same compound, the inhibition (Sus scrofa) was “Dose-Dependent Effect”, the inhibition (Tubulin (Homo sapiens)) was “Active” and the Activity (MCF7 [4]) was about 67%. The Activity (MCF7 [5]) was “Active”, the Activity (MCF7 [6]) was “Active” and the viability at 0.02 µM (MCF7 [7]) was 46.6%. The Activity (MCF7 [8]) was 31.28%, the Activity (MCF7 [9]) was 21.54% and the Activity (MCF7 [10]) was 0.41%. The Activity (MCF7 [11]) was 0.36%, the Activity (MCF7 [12]) was “Dose-Dependent Effect” and the Activity (MCF7 [13]) was “Dose-Dependent Effect”. For the same compound, the inhibition (MCF7 [14]) was “Active”, the Activity (HUVEC) was “Active” and the IC50 (MDA-MB-468) was 10 nM. It also gave an IC50 (MDA-MB-231) of 20 nM, an IC50 (HT-29) of 11 nM and an IC50 (DU-145) of 4 nM. For the same compound, the IC50 (A549) was 1 nM, the IC50 (A549/TR) was 1.6 nM and the “Ratio IC50” value [15] was 1.45. The “Ratio IC50” value [16] was 1.81, the LD50 at 336 h [17] was 150 mg/kg and the Activity [18] was “Non-Toxic”. For the same compound, the Activity [19] was “Non-Toxic”, the survival at 336 h [20] was 100% and the survival at 336 h [21] was 40%. The Activity [22] was “Non-Toxic”, the Activity [23] was “Non-Toxic” and the Activity [24] was “Non-Toxic”. For the same compound, the Activity [25] was “Non-Toxic”, the Activity [26] was “Non-Toxic” and the Activity [27] was “Non-Toxic”. It also gave a Tmax [28] of 4.8 min, an AUC(0-inf) [29] of 668 ng·h/mL and an AUC(0-inf) [30] of 1340 ng·h/mL.
